“Also recorded” adds a separate entry of the source.
Key:
[1] = system: naïve C57/BL6 splenocytes co-cultured with immunogenic B16 tumor cells; assay: IFNγ ELISA, naïve splenocytes co-cultured with Myc-inhibited immunogenic B16 tumor cells; format: cell-based, mouse
Experimental: To further investigate the influence of tumor secreted apoE on immune cell function, immunogenic B16 tumor cells (B16 cells treated with Myc inhibitors (0.25 μM BET+0.25 μM JQ1 for 4 days) were irradiated at 60 Gray and co-cultured with naïve C57/BL6 splenocytes in the presence of either apoE mimetic COG133 at 0.3, 3 and 9 μM or anti-APOE blocking antibody at 1, 10 and 30 μg/ml concentrations. Prior work has shown the immunogenic effect of treating cancer cells with Myc inhibitors and irradiation. IFNγ production was quantified by ELISA at 48 h. Splenocytes produced high levels of IFNγ when co-cultured with Myc-inhibited immunogenic B16 cells as shown in FIGS. 3A-3C. Exposure of these cells to apoE mimetic COG133 repressed IFNγ production (6-fold reduction) (FIG. 3A), while the presence of Anti-APOE antibody enhanced IFNγ production (3-fold increase) (FIG. 3B). We also tested IFNγ production from vaccinated splenocytes following co-culture with treated and untreated B16 cells in the presence of COG 133. […] In addition to IFNγ, we also quantified other cytokine/chemokines using ProcartaPlex multiplex immunoassay. […]
WT and apoE^−/− mice or WT and lrp8^−/− mice, were inoculated with either WT B16 or apoE^−/− B16 cells, with anti-CTLA4 antibody on day 0. […] Readings were measured at 450 nm using the EnSpire 2300 Multilabel plate reader (Perkin Elmer, Waltham, Massachusetts, US).

activated mouse T cells = assay: Viability of CD3/CD28-activated T cells, flow cytometry with Sytox Red dead cell stain; format: cell-based; conditions: T cells activated with CD3/CD28 dynabeads; COG133 0, 3, 9, 15 and 30 μM; 48 hr
Experimental: FIG. 14A: T cells isolated from naïve mouse spleens were cultured in RPMI media, WT B16 conditioned media and apoE^−/− B16 conditioned media for 48 hr and the media was analyzed with ProcartaPlex multiplex immunoassay. […] Remarkably, these effects were reversed by incubating T-cells with conditioned media from apoE^−/− cells, similar to T-cells activated in control RPMI media alone. Results are expressed as mean score±SD. *p<0.05; **p<0.005; ***p<0.001, determined by unpaired two-tailed Student's t-test. FIG. 14B: The effect of apoE agonist peptide COG133 on the viability of activated mouse T cells was tested by culturing the cells in the presence of the indicated concentrations of peptide for 48 hr and cell death was quantified with flow cytometry using the APC-conjugated Sytox Red dead cell stain. […] The number in Quadrant 2 is the percentage of dead cells.
T cells were activated with CD3/CD28 dynabeads and the effects of COG133 (0, 3, 9, 15 and 30 μM concentrations) on T cell apoptosis were evaluated.
Spleens were collected from mice euthanized by C02 narcosis and cervical dislocation. Spleens were pulverized through a 40-μm mesh cell strainer and treated with ACK lysing buffer (Thermo Fisher) for 10 seconds to remove erythrocytes. […]

[2] = system: Mouse bone-marrow derived dendritic cells (DC); assay: Cytokine production of TLR7/8 activated bone-marrow derived dendritic cells, multiplex ELISA; format: cell-based; conditions: 48 hr
Experimental: Mouse bone-marrow derived dendritic cells (DC) were cultured in the presence of the indicated concentrations of apoE agonist COG133 for 48 hr. COG133 increased the production of anti-inflammatory IL-10, GM-CSF, and chemokines MCP-1 and MCP-3 by TLR7/8 activated DC while decreasing the levels of proinflammatory cytokines IL-1α, IL-1β and IL-23 in a dose-dependent manner as determined by multiplex ELISA.
Cell culture supernatant was collected after centrifuge at 1,200 rpm for 10 min at 4° C. The concentrations of the following immune molecules were determined using the mouse Cytokine & Chemokine 36-plex ProcartaPlex Panel, a magnetic bead-based multiplex immunoassay (Thermo Scientific) following our previous protocol(19). Briefly, cell culture supernatant samples were mixed with antibody-linked polystyrene beads on a 96-well plate and incubated at room temperature (RT) for 2 h on an orbital shaker at 500 rpm. After washing, plates were incubated with biotinylated detection antibody for 30 min at RT. Plates were then washed twice and then labeled beads were resuspended in streptavidin-PE. Each sample was measured in duplicate along with standards (8-point dilutions) and the buffer control. Plates were read using a Luminex Bio-plex 200 system (Bio-Rad Corp.) for quantitative analysis.

Substance: COG133: a fragment of apoE peptide, which competes with the apoE holoprotein for binding the LDL receptors and acts as an apoE mimetic
- splenocyte production of IFNγ in presence of COG133 ([1]; naïve and vaccinated splenocytes + BET/JQ1 treated B16 cells (FIG. 3A)): markedly reduced
- IFNγ production, reduction ([1]; naïve splenocytes + Myc-inhibited irradiated B16 cells, COG133 at 0.3, 3 and 9 μM, ELISA at 48 h): 6 fold
- T cell viability (activated mouse T cells): diminished in a dose dependent manner; also recorded: decreases in a dose dependent fashion
- IL-1α, IL-1β and IL-23 levels of activated DC ([2]; dose dependent): suppressed; also recorded: decreasing
- secretion of anti-inflammatory cytokine IL-10 from activated DC ([2]; dose dependent): induced secretion
- production of IL-10, GM-CSF, MCP-1 and MCP-3 by TLR7/8 activated DC ([2]; indicated concentrations, multiplex ELISA (FIG. 16)): increased

From patent US20250011404A1, “TARGETING APOE ENHANCES T-CELL KILLING IN CANCER IMMUNOTHERAPY” (Children's National Medical Center, priority 2021, published 2025)
